Data published in US20230218589A1, “COMPOUND FOR PREVENTION OR TREATMENT OF A SKIN CANCER OR SKIN PRECANCER” (UNIQUEST PTY LTD, priority 2020, published 2023).
“Also recorded” adds a separate entry of the source.

Columns and labels:
CD8+ T cells = test: Mouse T cell proliferation assay (Cell Trace Violet, 7AAD, flow cytometry); assay type: cell-based; conditions: 3 days
Procedure: Spleens, inguinal and brachial lymph nodes were harvested from two C57BL/6 mice in sterile conditions and placed in sterile Phosphate Buffered Saline (PBS), then cells were dissociated into a single cell suspension by gently crushing all organs through a 70 μm cell strainer. Cells were washed through the strainer into a 50 mL falcon tube with 5 mL sterile ACK lysis buffer (0.15 M NH4Cl, 1 mM KHCO3 pH 7.3). Cells were incubated for 3 min at room temperature to lyse red blood cells. 5 mL sterile PBS was added to the cell suspension and cells were centrifuged at 350 g for 10 min at room temperature. Supernatant was removed and the cell pellet resuspended in 10 mL sterile PBS. Cells were centrifuged again at 350 g for 10 min at room temperature. The supernatant was removed and the cells were resuspended in 1 mL of sterile PBS.
1 μμL of 5 mM CellTrace Violet (Thermo Fisher) was added to the cell suspension and the mixture was swirled to ensure even dispersion of the dye. Cells were incubated for 20 min in the dark at room temperature. 5 mL of pre-warmed complete RPMI medium [(RPMI 1640 (Gibco), 10% heat inactivated FBS (Gibco), 1× Penicillin/Streptomycin/L-Glutamine, 100 μM 2-Mercaptoethanol] was added to the cell suspension and incubated in the dark at room temperature for 5 min. Cells were centrifuged at 350 g for 5 min at room temperature. Supernatant was removed without disrupting the cell pellet. Cells were resuspended in 1 mL complete RPMI medium.
Cells were counted using a haemocytometer and cells were adjusted to 2×10^6 cells/mL using complete RPMI medium. 500 μL of cell suspension was added to wells in a 48-well plate (Nunc) so the final number of cells per well was 1×10^6.
A vial of Dynabeads Mouse T Activator CD3/CD28 beads (4×10^7 beads/mL) was vortexed for 30 sec and 625 μL of beads was aliquoted into a 5 mL polypropylene FACS tube (Sarstedt). 1 mL of complete RPMI medium was added to the beads and mixed by pipetting. The FACS tube was placed in a StemCell Technologies EasySep magnet for 1 minute and supernatant was discarded. The tube was removed from the magnet and washed beads were resuspended in 625 μL of complete RPMI medium. 12.5 μL of bead suspension (5×10^5 beads) was added into appropriate wells of the 48-well plate with cell suspensions to induce T cell activation.
Cells were incubated in a humidified incubator at 37° C. with 5% CO2 for 1 hour before Compound 1 (or vehicle only) was diluted in complete RPMI medium and added to the appropriate wells at the concentration required. The final volume in all wells was 1 mL. Cells were incubated for 3 days in a humidified incubator at 37° C. with 5% CO2.
Cells were harvested from each well by resuspending cells with a pipette and transferring to polypropylene FACS tubes. […]

FKBP12 enzyme = FKBP12 enzyme (Homo sapiens, UniProt P62942); test: TR-FRET assay, competition for tacrolimus (FK506) binding to FKBP12; conditions: 8-point dilution 0.001 nM to 10 μM, 30 min room temperature
Sequence of FKBP12 enzyme (P62942 whole entry, species assumed): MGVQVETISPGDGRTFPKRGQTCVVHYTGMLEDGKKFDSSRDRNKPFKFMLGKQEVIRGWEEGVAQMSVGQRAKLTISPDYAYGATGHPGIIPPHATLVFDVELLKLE
Procedure: The FKBP12 enzyme used in the assay is tagged with a polyhistidine sequence. An anti-6xHis antibody, labelled with a fluorescent donor, F(d), binds the tagged enzyme. The enzyme ligand, FK506 is tagged with a fluorescent acceptor, F(a) and binds the enzyme. […] In the presence of a test inhibitor which competes for FK506, the complex is disrupt& and is no longer in close proximity, resulting in emission at wavelength A due to the F(d). […] The inhibitors were added to the master mix in the assay plate containing the enzyme/antibody/ligand complex, with a final detergent concentration of 0.005%. The reaction was incubated for 30 min at room temperature and then read on a SpectraMax M5 (Molecular Devices) at wavelengths A (615 nm) and B (665 nm). The ratio between light emission (wavelength B/A) is calculated and the blank subtracted values were plotted against the inhibitor concentration in Logio molar and fitted using one site Ki non-linear regression to determine the Kd of the bound test inhibitor.

[1] = Single dose pharmacokinetics after topical application to mouse ear; assay type: in vivo; conditions: single topical 10 μL of 3% solution in propylene glycol to ear, LOQ 3.5 ng/mL
Procedure: The single dose pharmacokinetics of Compound 1 (Cmpd 1) was assessed by topical administration of the compound as a formulation in propylene glycol (3% concentration) applied once per day (QD) to one ear only of C57BL/6 female mice, 8 weeks of age (N=2 or 3 per timepoint; samples taken 1, 6 and 24 h post administration of Compound 1).
Compound Application: Compound 1 (10 μL of a 3% solution in propylene glycol) was applied to mouse ears using a silicone brush. The brush was cleaned with distilled water and ethanol between applications. The vehicle solution was 100% propylene glycol.
Blood processing: Cryovials were prepared containing 10 μL 0.5 M EDTA and labelled appropriately. Cardiac bleed was performed on mice and blood transferred to an Eppendorf tube. Blood (110 μL) was transferred immediately to a cryovial containing EDTA and well mixed to prevent clotting. The cryovial was placed on dry ice and transferred to a −80° C. freezer.
Ear processing: Before taking ears for pharmacokinetics the skin was cleaned with distilled water and dried with cotton balls/swab before doing 2 tape strips (one piece of tape per strip). The whole ear was removed from the mouse. The weight of the whole ear was recorded and placed into an appropriate cryovial which was placed on dry ice then transferred to a −80° C. freezer.
Sample processing: A LC/MS/MS based bioanalytical method was developed for the detection and quantification of Compound 1 in mouse blood and ears. Calibration standards and quality control samples were prepared by adding 2.5 μL of stock solutions of test compound of different concentrations into 25 μL of naïve mouse blood or ear homogenates. Control samples were prepared by spiking 2.5 μL, of water or acetonitrile into 25 μL of naïve mouse blood or ear homogenates. The blood or ear samples were transferred into polypropylene Eppendorf tubes. […] 20-40 μL of the supernatant was analysed by LCMS/MS, using the same instrument, column, Mobile phase A, Mobile phase B, gradient and other parameters as outlined above for the tumour sample processing.

skin tumours = conditions: 104 weeks, doses up to 260× of the recommended human dose (Protopic prescribing information); cited from earlier work
[2] = system: chemically (TPA+DMBA) induced tumour formation; conditions: topical application, mouse model (Jiang et al. 1993); cited from earlier work

Row | Compound | rescue of CD8+ T cell proliferation in the presence of tacrolimus (CD8+ T cells; 0.3 μM, 1 μM and 3 μM Compound 1 with 0.6 ng/mL tacrolimus) | effect on CD8+ T cell viability in the absence of tacrolimus (CD8+ T cells; Compound 1 0.3-3 μM, no tacrolimus, 7AAD) | effect on CD8+ T cell proliferation in the absence of tacrolimus (CD8+ T cells; Compound 1 0.3-3 μM, no tacrolimus) | Kd (FKBP12 enzyme) [nM] | Concentration in blood ([1]; 1 h) | Concentration in blood ([1]; 6 h) | Concentration in blood ([1]; 24 h) | association of skin tumours with daily topical doses (skin tumours) | CD8+ T cell proliferation compared to the vehicle control (CD8+ T cells; 0.6 ng/mL tacrolimus, CD3/CD28 beads) | reduction of chemically (TPA+DMBA) induced tumour formation [2] [%]
1 | CC[C@@H]1/C=C(\C)[C@@H](O)[C@H](C)C[C@H](OC)[C@H]2O[C@@](O)(C(=O)C(=O)N3CCCC[C@H]3C(=O)O[C@H](/C(C)=C/[C@@H]3CC[C@@H](O)[C@H](OC)C3)[C@H](C)[C@@H](O)CC1=O)[C@H](C)C[C@@H]2OC [Compound 1, 17-Ethyl-1,14,20-trihydroxy-12-[2′-(4″-hydroxy-3″-methoxycyclohexyl)-1′-methylvinyl]-23,25-dimethoxy-13,19,21,27-tetramethyl-11,28-dioxa-4-azatricyclo-[22.3.1.0^4,9]octacos-18-ene-2,3,10,16-tetraone] | dose dependent rescue; also recorded: dose dependently and significantly rescued | no significant effect | no significant effect | 2.8 | BLQ | BLQ | BLQ | – | – | –
2 | C=CC[C@@H]1/C=C(\C)C[C@H](C)C[C@H](OC)[C@H]2O[C@@](O)(C(=O)C(=O)N3CCCC[C@H]3C(=O)O[C@H](/C(C)=C/[C@@H]3CC[C@@H](O)[C@H](OC)C3)[C@H](C)[C@@H](O)CC1=O)[C@H](C)C[C@@H]2OC [tacrolimus, reference compound] | – | – | – | – | – | – | – | no association | inhibited | 80
